# Reference: patent US5925369A, “Bis alkanoyl esters of carnitine having bactericidal, fungicidal and antiprotozoal activity” (priority 1996, dated 1999)
# Like-named read-outs stand apart in the source and are kept apart here.
# Tests used:
# B. pumilus = assay: MIC on Gram positive bacteria; assay type: cell-based; conditions: Bacillus pumilus; B. pumilus CN 607, lab collection; read-out: Minimal Inhibitory Concentration
# Method: (§1) Bacterial suspensions are prepared from an overnight culture in Mueller-Hinton broth and are adjusted, in the same medium, to a final concentration of 5.0×10^4 cells/ml in each well of a 96-well microtiter plate. Substance dilutions (0.3 log) in Mueller-Hinton broth are added to the suspensions in order to have a range of final concentrations from 0.19 to 100 mcg/ml.
# (§2) Microtiters are then incubated at 37° C. for 18 hours. (See L. D. THRUPP, Susceptibility testing of antibiotics in liquid media, in: Antibiotics in laboratory medicine. V. LORIAN Ed., II edition, 4, 93-150, Williams & Wilkins, Baltimora, Md. 21202 U.S.A.).
# Micrococcus sp. = assay: MIC on Gram positive bacteria; assay type: cell-based; conditions: Micrococcus sp. IDI 3502, clinical isolate (pustule, scalp); read-out: Minimal Inhibitory Concentration
# Method: as §1, §2
# [1] = tested on: S. aureus (Staph. aureus); assay: MIC on Gram positive bacteria; assay type: cell-based; conditions: Staphylococcus aureus, read-out: Minimal Inhibitory Concentration
# Method: as §1, §2
# [2] = tested on: S. faecalis (Strept. faecalis); assay: MIC on Gram positive bacteria; assay type: cell-based; conditions: Enterococcus faecalis, read-out: Minimal Inhibitory Concentration
# Method: as §1, §2
# Staph. capitis = assay: MIC on Gram positive bacteria; assay type: cell-based; conditions: Staphylococcus capitis; Staph. capitis IDI 3502, clinical isolate (pustule, scalp); read-out: Minimal Inhibitory Concentration
# Method: as §1, §2
# Staph. epider. = assay: MIC on Gram positive bacteria; assay type: cell-based; conditions: Staph. epider. IDI 3482, clinical isolate (suppurative wound); read-out: Minimal Inhibitory Concentration
# Method: as §1, §2
# Staph. sp. = assay: MIC on Gram positive bacteria; assay type: cell-based; conditions: Staph. sp. SG1 II, clinical isolate; read-out: Minimal Inhibitory Concentration
# Method: as §1, §2
# Staph. warneri = assay: MIC on Gram positive bacteria; assay type: cell-based; conditions: Staphylococcus warneri; Staph. warneri IDI 3482, clinical isolate (suppurative wound); read-out: Minimal Inhibitory Concentration
# Method: as §1, §2
# Strept. sp. = assay: MIC on Gram positive bacteria; assay type: cell-based; conditions: Strept. sp. SG 7 II, clinical isolate; read-out: Minimal Inhibitory Concentration
# Method: as §1, §2
# E. aerogenes = assay: MIC on Gram negative bacteria; assay type: cell-based; conditions: Klebsiella aerogenes; E. aerogenes UM, lab collection; read-out: Minimal Inhibitory Concentration
# Method: as §1, §2
# [3] = tested on: E. coli (Escherichia coli); assay: MIC on Gram negative bacteria; assay type: cell-based; conditions: read-out: Minimal Inhibitory Concentration
# Method: as §1, §2
# Enterobacter cloacae = assay: MIC on Gram negative bacteria; assay type: cell-based; conditions: Enterobacter cloacae SG 3 II, clinical isolate; read-out: Minimal Inhibitory Concentration
# Method: as §1, §2
# K. oxytoca = assay: MIC on Gram negative bacteria; assay type: cell-based; conditions: Klebsiella oxytoca; K. oxytoca 552, lab collection; read-out: Minimal Inhibitory Concentration
# Method: as §1, §2
# Klebsiella pneumoniae = assay: MIC on Gram negative bacteria; assay type: cell-based; conditions: Klebsiella pneumoniae SG 5 II, clinical isolate; read-out: Minimal Inhibitory Concentration
# Method: as §1, §2
# P. vulgaris = assay: MIC on Gram negative bacteria; assay type: cell-based; conditions: Proteus vulgaris; P. vulgaris UM, lab collection; read-out: Minimal Inhibitory Concentration
# Method: as §1, §2
# Proteus sp. = assay: MIC on Gram negative bacteria; assay type: cell-based; conditions: Proteus sp. SG 9 II, clinical isolate; read-out: Minimal Inhibitory Concentration
# Method: as §1, §2
# Pseudomonas aeruginosa = assay: MIC on Gram negative bacteria; assay type: cell-based; conditions: Pseudomonas aeruginosa IDI 3530, clinical isolate (ulcer); read-out: Minimal Inhibitory Concentration
# Method: as §1, §2
# S. typhimurium = assay: MIC on Gram negative bacteria; assay type: cell-based; conditions: Salmonella enterica; S. typhimurium DS, lab collection; read-out: Minimal Inhibitory Concentration
# Method: as §1, §2
# Gram negative bacteria = assay: MIC on Gram negative bacteria (all strains); assay type: cell-based; conditions: 5 strains
# Method: as §1, §2
# dermatophytes = assay: MIC on dermatophytes (all strains); assay type: cell-based; conditions: for MIC: 22 strains
# Method: Mycelium fragments, micro and macroaleuriospores are harvested from 7-day fungal cultures grown at 30 ° C. in Potato Dextrose agar by washing them with Sabouraud broth and 0.5% Tween 80. After a coarse filtration and washing, the fungal suspension is resuspended in Yeast Nitrogen Base supplemented with asparagine and glucose (YNBs) to yield a final concentration of 1.0×10^5 infective units/ml in a microtiter plate. The substances (0.3 log dilutions in Y.N.B.s.) are added to the fungal suspensions in order to generate a range of final concentrations from 0.19 to 100 mcg/ml. The microtiter plates are then incubated at 30° C. for 96-120 hours.
# mouse scarified skin = assay: Dermal tolerability after repeated treatments (10 days) on mouse scarified skin; assay type: in vivo, CD1 mice; conditions: 1% gel; for Cracking (C), mean score / Desquamation (D), mean score / Erythema (E), mean score: scale 0-3, 50 mg/day
# Method: Male CD1 mice (C. RIVER), aged 6 weeks, were used (5 animals per group).
# Substance formulations (1% of test article) were prepared in gel (Hydroxyethyl-cellulose, 2.5 gr.; Glycerin, 7.0 gr.; Propylene Glycol, 7.0 gr.; water up to 100 ml).
# The central dorsal zone of the animals was first shaved, and then gently abraded with a scalpel blade. Treatment was performed 1 day following the dermal abrasion by administering 50 mg of each substance formulation once a day, for 10 consecutive days. The treated skin areas were examined at 5, 7, 9, and 11 days following scarification. The evaluation was based upon grading of the lesions as […] (E), DESQUAMATION (D), and CRACKING (C), according to the following scale:
# The mean of the values of each parameter in the same animal group allowed us to evaluate the tissue damage provoked by the substance under examination.
# [4] = S. aureus 306 MR, lab collection
# [5] = Staph. aureus IDI 3530, clinical isolate (ulcer)
# [6] = Staph. aureus IDI 3593, clinical isolate (ulcer)
# [7] = Staph. aureus SG II, clinical isolate
# [8] = S. faecalis 501, lab collection
# [9] = S. faecalis 509, lab collection
# [10] = Strept. faecalis IDI 3580, clinical isolate (ulcer)
# [11] = Escherichia coli SG 4 II, clinical isolate
compound,measurement,setting,value
"CCCCCCCCCCCOC(=O)C[C@H](C[N+](C)(C)C)OC(=O)CC(C)C [ST 1103, isovaleryl L-carnitine undecyl ester methanesulfonate, reference compound]",MIC,B. pumilus,3.12 µg/mL
same,MIC,Micrococcus sp.,3.12 µg/mL
same,MIC,"[1]; S. aureus 303, lab collection",6.25 µg/mL
same,MIC,[1]; [4],6.25 µg/mL
same,MIC,[1]; [5],3.12 µg/mL
same,MIC,[1]; [6],3.12 µg/mL
same,MIC,[1]; [7],3.12 µg/mL
same,MIC,[2]; [8],3.12 µg/mL
same,MIC,[2]; [9],1.56 µg/mL
same,MIC,[2]; [10],6.25 µg/mL
same,MIC,Staph. capitis,3.12 µg/mL
same,MIC,Staph. epider.,1.56 µg/mL
same,MIC,Staph. sp.,6.25 µg/mL
same,MIC,Staph. warneri,6.25 µg/mL
same,MIC,Strept. sp.,3.12 µg/mL
same,MIC,E. aerogenes,25 µg/mL
same,MIC,"[3]; E. coli 92 F, lab collection",25 µg/mL
same,MIC,[3]; [11],25 µg/mL
same,MIC,Enterobacter cloacae,25 µg/mL
same,MIC,K. oxytoca,12.5 µg/mL
same,MIC,Klebsiella pneumoniae,50 µg/mL
same,MIC,P. vulgaris,50 µg/mL
same,MIC,Proteus sp.,50 µg/mL
same,MIC,Pseudomonas aeruginosa,25 µg/mL
same,MIC,S. typhimurium,25 µg/mL
same,MIC,Gram negative bacteria; clinical isolates,35 µg/mL
same,MIC,Gram negative bacteria; lab collection,27.5 µg/mL
same,MIC,dermatophytes,13.5 µg/mL
same,"Cracking (C), mean score",mouse scarified skin; day +5,0
same,"Desquamation (D), mean score",mouse scarified skin; day +5,0.4
same,"Erythema (E), mean score",mouse scarified skin; day +5,1.2
same,"Cracking (C), mean score",mouse scarified skin; day +7,0
same,"Desquamation (D), mean score",mouse scarified skin; day +7,0.4
same,"Erythema (E), mean score",mouse scarified skin; day +7,0.4
same,"Cracking (C), mean score",mouse scarified skin; day +9,0
same,"Desquamation (D), mean score",mouse scarified skin; day +9,0
same,"Erythema (E), mean score",mouse scarified skin; day +9,0
same,"Cracking (C), mean score",mouse scarified skin; day +11,0
same,"Desquamation (D), mean score",mouse scarified skin; day +11,0
same,"Erythema (E), mean score",mouse scarified skin; day +11,0
"CCCCCCCCCCC(=O)O[C@H](CC(=O)OCc1ccc(COC(=O)C[C@H](C[N+](C)(C)C)OC(=O)CCCCCCCCCC)cc1)C[N+](C)(C)C [ST 1226, bis(undecanoyl L-carnitine chloride)p-xylilene diester]",MIC,B. pumilus,1.56 µg/mL
same,MIC,Micrococcus sp.,1.56 µg/mL
same,MIC,"[1]; S. aureus 303, lab collection",3.12 µg/mL
same,MIC,[1]; [4],3.12 µg/mL
same,MIC,[1]; [5],3.12 µg/mL
same,MIC,[1]; [6],3.12 µg/mL
same,MIC,[1]; [7],3.12 µg/mL
same,MIC,[2]; [8],3.12 µg/mL
same,MIC,[2]; [9],1.56 µg/mL
same,MIC,[2]; [10],6.25 µg/mL
same,MIC,Staph. capitis,1.56 µg/mL
same,MIC,Staph. epider.,3.12 µg/mL
same,MIC,Staph. sp.,3.12 µg/mL
same,MIC,Staph. warneri,3.12 µg/mL
same,MIC,Strept. sp.,3.12 µg/mL
same,MIC,E. aerogenes,6.25 µg/mL
same,MIC,"[3]; E. coli 92 F, lab collection",25 µg/mL
same,MIC,[3]; [11],12.5 µg/mL
same,MIC,Enterobacter cloacae,12.5 µg/mL
same,MIC,K. oxytoca,25 µg/mL
same,MIC,Klebsiella pneumoniae,50 µg/mL
same,MIC,P. vulgaris,50 µg/mL
same,MIC,Proteus sp.,50 µg/mL
same,MIC,Pseudomonas aeruginosa,50 µg/mL
same,MIC,S. typhimurium,25 µg/mL
same,MIC,Gram negative bacteria; clinical isolates,35 µg/mL
same,MIC,Gram negative bacteria; lab collection,26.2 µg/mL
same,activity compared with ST 1103,dermatophytes,higher activity than ST 1103
same,MIC,dermatophytes,3.19 µg/mL
same,dermal tolerability compared with ST 1103,mouse scarified skin; 10 days,better tolerated than ST1103
same,"Cracking (C), mean score",mouse scarified skin; day +5,0
same,"Desquamation (D), mean score",mouse scarified skin; day +5,0
same,"Erythema (E), mean score",mouse scarified skin; day +5,0.2
same,"Cracking (C), mean score",mouse scarified skin; day +7,0
same,"Desquamation (D), mean score",mouse scarified skin; day +7,0
same,"Erythema (E), mean score",mouse scarified skin; day +7,0
same,"Cracking (C), mean score",mouse scarified skin; day +9,0
same,"Desquamation (D), mean score",mouse scarified skin; day +9,0
same,"Erythema (E), mean score",mouse scarified skin; day +9,0
same,"Cracking (C), mean score",mouse scarified skin; day +11,0
same,"Desquamation (D), mean score",mouse scarified skin; day +11,0
same,"Erythema (E), mean score",mouse scarified skin; day +11,0
